Laboratory results as given in publication PMC3652196, “Pharmacometrics of 3-Methoxypterostilbene: A Component of Traditional Chinese Medicinal Plants” (Evidence-based Complementary and Alternative Medicine : eCAM, 2013).
Values joined by “and” are separate entries in the source; they are usually repeats but may differ in a detail not shown here. Equal values may be shown once. Read-outs that look alike come from different tables or passages of the source.

Tests used:
[1] = test system: 9 KB; design: method as in PMID 3598597; details: cited from earlier work
[2] = Pharmacokinetic study in cannulated male Sprague-Dawley rats (serum and urine, HPLC); format: in vivo, rat; details: for CL renal: serum and urine; for AUC: n = 4 (abstract); for bioavailability: read-out: Bioavailability (F%); for AUC(0-inf): n = 4; for Cumulative amount excreted in urine: over 72 h; for CLhepatic: CLtotal − CLrenal
Text: The HPLC system used was a Shimadzu HPLC (Kyoto, Japan), consisting of two LC-10A pumps, a SIL-10AF autoinjector, a SPD-M10A photodiode array detector, and a SCL-10A system controller. Data collection and integration were achieved using Shimadzu EZ Start Class VP (version 7.4) software. A Phenomenex Luna C18(2) (5 μm, 250 × 4.60 mm) column was used. The mobile phase consisted of acetonitrile and water (62 : 38 v/v) that were filtered and degassed under reduced pressure prior to use. Pinosylvin was used as the internal standard. […] Ultraviolet detection was carried out at 327 nm. […] The bias of the assay was <15% and was within 13% at the LOQ [9].
Male Sprague-Dawley rats (≈200 g) were obtained from Simonsen Laboratories (Gilroy, CA, USA) and allowed food (Purina Rat Chow 5001) and water ad libitum upon arrival to the vivarium. Rats were housed in a temperature- and humidity-controlled facility with a 12 h light/dark cycle. Prior to the first day of the pharmacokinetic experiment, the rats were anesthetized using isoflurane (IsoFlo, Abbott Laboratories, Abbot Park, IL, USA) coupled with an oxygen regulator, and monitored by pedal reflex and respiration rate to maintain a surgical plane of anesthesia. The right jugular veins of the rats were cannulated with sterile silastic cannulas (Dow Corning, Midland, MI, USA). After cannulation, Intramedic PE-50 polyethylene tubing (Becton, Dickinson and Company, Franklin Lakes, NJ, USA) was exposed through the dorsal skin. The cannulas were flushed with nonheparinized 0.9% sterile saline solution. The animals were placed in metabolic cages to recover and fasted overnight.
No pharmacokinetics studies are reported in the literature for 3-methoxypterostilbene. Despite the paucity of 3-methoxypterostilbene pharmacokinetic studies in the literature, studies on other stilbenes have reported intravenous (IV) dosage ranges from 10 to 20 mg/kg and from 50 to 300 mg//kg for oral (PO) dosage. In keeping with the literature, doses of 10 mg/kg IV and 100 mg/kg PO were chosen.
Male Sprague-Dawley rats (n = 8, average weight 200 g) were cannulated as described in the Animals and Surgical Procedures section. The animals were placed in metabolic cages following surgery where they were recovered overnight and fasted for 12 h prior to dosing. On the day of the experiment, the animals were dosed with 3-methoxypterostilbene in PEG 400 either IV (10 mg/kg, n = 4) or PO (100 mg/kg, n = 4). After dosing, a series of whole blood samples (0.5 mL) were collected at 0, 1, and 15 min, and 0.5, 1, 2, 4, 6, 12, 24, 48, and 72 h and 0, 0.25, 0.5, 1, 2, 4, 6, 12, 24, 48, and 72 h for IV and PO dosed rats, respectively. The cannulas were flushed with 0.5 mL 0.9% nonheparinized saline solution after each sample collection. The samples were collected into regular 2.0 mL Eppendorf tubes, centrifuged at 10,000 rpm for 5 min (Beckman Microfuge centrifuge, Beckman Coulter Inc., Fullerton, CA, USA), and the serum was collected. The serum was divided into two 0.1 mL fractions and placed into regular 2.0 mL Eppendorf tubes labeled as free and total serum samples. Samples were stored at −20°C until analyzed. Urine samples were also collected at 0, 2, 6, 12, 24, 48, and 72 h following 3-methoxypterostilbene administration. The volumes of urine produced by the rats were recorded, and two 0.1 mL aliquots were collected into separate prelabeled regular polypropylene microcentrifuge tubes and labeled as free and total urine samples and stored at −20°C until analyzed. At 72 h after dose, the animals were euthanized exsanguinated, and serum was collected.
Serum and urine samples (0.1 mL) were run in duplicate with or without the addition of 20 μL of 500 U/mL β-glucuronidase and incubated in a shaking water bath at 37°C for 2 h to liberate any glucuronide conjugates. The proteins present in the serum samples were precipitated using 1 mL of −20°C acetonitrile. […]

[3] = test system: crown-gall; design: method as in PMID 3598597; details: cited from earlier work
[4] = test system: human leukemia-derived HL60 cells; details: cited from earlier work
[5] = rat, intravenous 10 mg/kg, mean ± SEM
[6] = rat, oral 100 mg/kg, mean ± SEM
[7] = rat, oral 100 mg/kg, mean ± SEM, 100 mg/kg

Question: For `COc1cc(/C=C/c2ccc(O)c(OC)c2)cc(OC)c1` [3-methoxypterostilbene, trans-3,3′-5-trimethoxy-4′-hydro-xystilbene], which “Activity in 9 KB cytotoxicity assay compared with piceatannol” value [1] is on record?
Answer: Its value is “significantly greater activity”.

Question: What about the CL renal ([2]; male, Sprague-Dawley, rat, intravenous 10 mg/kg, mean ± SEM) of the same compound?
Answer: The CL renal was 12.7 mL/min/kg.

Question: And the CL renal ([2]; male, Sprague-Dawley, rat, oral 100 mg/kg, mean ± SEM)?
Answer: The CL renal was 0.167 mL/min/kg.

Question: And the AUC ([2]; male, Sprague-Dawley, serum, rat, IV 10 mg/kg, mean ± SEM)?
Answer: Its AUC is 48.1 ± 23.8 µg·h/mL.

Question: What about the concentration at 24 h ([2]; male, Sprague-Dawley, serum, rat, IV 10 mg/kg, below detectable concentrations, read-out: Serum concentration after 24 hours) of the same compound?
Answer: The concentration at 24 h was less than 50 ng/mL.

Question: And the AUC ([2]; male, Sprague-Dawley, serum, rat, PO 100 mg/kg, mean ± SEM)?
Answer: The AUC was 229 ± 44.6 µg·h/mL.

Question: And the MRT ([2]; male, Sprague-Dawley, serum, rat, intravenous 10 mg/kg, mean ± SEM)?
Answer: The MRT was 26 ± 15 h.

Question: And the clearance ([2]; male, Sprague-Dawley, serum, rat, intravenous 10 mg/kg, mean ± SEM, read-out: CLtotal (converted))?
Answer: The clearance was 797 mL/min/kg.

Question: And the half-life ([2]; male, Sprague-Dawley, serum, rat, intravenous 10 mg/kg, mean ± SEM, read-out: t 1/2 serum (converted))?
Answer: The half-life was 18.9 ± 10.9 h.

Question: And the bioavailability ([2]; male, Sprague-Dawley, serum, rat, intravenous 10 mg/kg)?
Answer: The bioavailability was 100%.

Question: And the bioavailability ([2]; male, Sprague-Dawley, serum, rat, oral 100 mg/kg vs 10 mg/kg IV, mean ± SEM)?
Answer: Its bioavailability is 50.6 ± 10%.

Question: What about the MRT ([2]; male, Sprague-Dawley, serum, rat, oral 100 mg/kg, mean ± SEM) of the same compound?
Answer: The MRT was 105 ± 13.1 h.

Question: And the half-life ([2]; male, Sprague-Dawley, serum, rat, oral 100 mg/kg, mean ± SEM, read-out: t 1/2 serum (converted))?
Answer: Its half-life is 73.3 ± 8.91 h.

Question: What about the half-life ([2]; male, Sprague-Dawley, urine, rat, intravenous 10 mg/kg, mean ± SEM, read-out: t 1/2 urine (converted)) of the same compound?
Answer: Its half-life is 9.54 ± 1.51 h.

Question: And the half-life ([2]; male, Sprague-Dawley, urine, rat, oral 100 mg/kg, mean ± SEM, read-out: t 1/2 urine (converted))?
Answer: Its half-life is 20.6 ± 3.01 h.

Question: And the Tmax ([2]; male, Sprague-Dawley, rat serum, PO 100 mg/kg, average)?
Answer: The Tmax was 0.5 h.

Question: And the AUC(0-inf) ([2]; male, Sprague-Dawley, rat serum, intravenous 10 mg/kg, mean ± SEM)?
Answer: Its AUC(0-inf) is 48.1 ± 23.8 µg·h/mL.

Question: What about the AUC(0-inf) ([2]; male, Sprague-Dawley, rat serum, oral 100 mg/kg, mean ± SEM) of the same compound?
Answer: Its AUC(0-inf) is 229 ± 44.6 µg·h/mL.

Question: What about the “Cumulative amount excreted in urine” value ([2]; rat, IV 10 mg/kg (~2 mg per rat)) of the same compound?
Answer: Its value is ~ 98 μg.

Question: What about the “Cumulative amount excreted in urine” value ([2]; rat, PO 100 mg/kg (20 mg per rat)) of the same compound?
Answer: The value was 341 µg.

Question: What about the “f e (fraction excreted in urine unchanged)” value [2, 5] of the same compound?
Answer: The value was 1.64 ± 0.950%.

Question: What about the Vdβ ([2]; rat, intravenous 10 mg/kg, mean ± SEM, 10 mg/kg) of the same compound?
Answer: Its Vdβ is 5.11 ± 0.38 L/kg and 5.11 ± 0.380 L/kg.

Question: What about the CLhepatic [2, 5] of the same compound?
Answer: The CLhepatic was 785 ± 388 mL/min/kg.

Question: And the CLtotal [2, 6]?
Answer: Its CLtotal is 8 ± 1.33 mL/min/kg.

Question: What about the “f e (fraction excreted in urine unchanged)” value [2, 6] of the same compound?
Answer: The value was 1.24 ± 0.160%.

Question: What about the Vdβ [2, 7] of the same compound?
Answer: Its Vdβ is 52.0 ± 10.0 L/kg and 52.0 ± 10.5 L/kg.

Question: And the CLhepatic [2, 7]?
Answer: Its CLhepatic is 8 ± 151.33 mL/min/kg and 8 ± 1.33 mL/min/kg.

Question: What about the “Activity in crown-gall plant antitumor (potato disk) assay compared with piceatannol” value [3] of the same compound?
Answer: The value was “significantly greater activity”.

Question: What about the Apoptotic-inducing activity [4] of the same compound?
Answer: Its Apoptotic-inducing activity is “greater apoptotic-inducing activity than resveratrol”.
